Reference: PubChem BioAssay AID248 (DTP/NCI, 2004)
Values joined by “and” are separate entries in the source; they are usually repeats but may differ in a detail not shown here. Equal values may be shown once. Inconclusive results and toxic doses are left out. No stated cut-off is given here; in the data, active means T/C of 150% or more; inactive means T/C below 125%.

Test system: L1210 leukemia ip in BDF1 mice, survival T/C
Test: NCI In Vivo Anticancer Drug Screen. Data for tumor model L1210 Leukemia (intraperitoneal) in B6D2F1 (BDF1) mice
Details: endpoint: mean survival time, higher = longer survival
Procedure, shortened: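 Mice bearing the transplanted tumor received compound or vehicle. Survival of the treated group was divided by that of the vehicle-treated control group to give the ratio.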

[1] = dose: 100.0 mg/kg/injection, schedule: Q04DX003 (ip), vehicle: saline with Tween-80
[2] = dose: 200.0 mg/kg/injection, schedule: Q04DX003 (ip), vehicle: saline with Tween-80
[3] = dose: 400.0 mg/kg/injection, schedule: Q04DX003 (ip), vehicle: saline with Tween-80
[4] = dose: 100.0 mg/kg/injection, schedule: Q01DX009 (ip), vehicle: saline with Tween-80
[5] = dose: 50.0 mg/kg/injection, schedule: Q01DX001 (ip), vehicle: carboxymethylcellulose (CMC)
[6] = dose: 100.0 mg/kg/injection, schedule: Q01DX001 (ip), vehicle: carboxymethylcellulose (CMC)
[7] = dose: 200.0 mg/kg/injection, schedule: Q01DX001 (ip), vehicle: carboxymethylcellulose (CMC)
[8] = dose: 100.0 mg/kg/injection, schedule: Q01DX001 (ip), vehicle: saline
[9] = dose: 200.0 mg/kg/injection, schedule: Q01DX001 (ip), vehicle: saline
[10] = dose: 400.0 mg/kg/injection, schedule: Q01DX001 (ip), vehicle: saline
[11] = dose: 25.0 mg/kg/injection, schedule: Q01DX009 (ip), vehicle: Klucel (hydroxypropylcellulose) (HPC)
[12] = dose: 50.0 mg/kg/injection, schedule: Q01DX009 (ip), vehicle: Klucel (hydroxypropylcellulose) (HPC)
[13] = dose: 100.0 mg/kg/injection, schedule: Q01DX009 (ip), vehicle: Klucel (hydroxypropylcellulose) (HPC)
[14] = dose: 100.0 mg/kg/injection, schedule: Q04DX003 (ip), vehicle: Klucel (hydroxypropylcellulose) (HPC)
[15] = dose: 200.0 mg/kg/injection, schedule: Q01DX009 (ip), vehicle: Klucel (hydroxypropylcellulose) (HPC)
[16] = dose: 200.0 mg/kg/injection, schedule: Q04DX003 (ip), vehicle: Klucel (hydroxypropylcellulose) (HPC)
[17] = dose: 400.0 mg/kg/injection, schedule: Q01DX009 (ip), vehicle: Klucel (hydroxypropylcellulose) (HPC)
[18] = dose: 400.0 mg/kg/injection, schedule: Q04DX003 (ip), vehicle: Klucel (hydroxypropylcellulose) (HPC)

Measured: T/C

Cc1cc2c(=S)nc(N)[nH]c2nc1C
inactive: dose: 100.0 mg/kg/injection, schedule: Q01DX Z (ip), vehicle: methylcellulose (MC) 105 % of control | dose: 200.0 mg/kg/injection, schedule: Q01DX Z (ip), vehicle: methylcellulose (MC) 103 % of control

O=C1/C(=C\c2ccccc2)C(Br)c2ccccc21 (stereo not drawn)
inactive: dose: 12.5 mg/kg/injection, schedule: Q01DX009 (ip), vehicle: water 95 % of control | dose: 12.5 mg/kg/injection, schedule: Q04DX003 (ip), vehicle: water 100 % of control | dose: 25.0 mg/kg/injection, schedule: Q01DX009 (ip), vehicle: water 97 % of control | dose: 25.0 mg/kg/injection, schedule: Q04DX003 (ip), vehicle: water 91 % of control | dose: 50.0 mg/kg/injection, schedule: Q01DX009 (ip), vehicle: water 100 % of control | dose: 50.0 mg/kg/injection, schedule: Q04DX003 (ip), vehicle: water 92 % of control

CCOCC(O)(c1ccc(Cl)cc1)c1ccc(Cl)cc1
inactive: [1] 106 % of control | [2] 95 % of control | [3] 102 % of control

COc1cccn(C/C=C(\C)CCC=C(C)C)c1=O
inactive: dose: 25.0 mg/kg/injection, schedule: Q01DX009 (ip), vehicle: saline with Tween-80 104 % of control | dose: 25.0 mg/kg/injection, schedule: Q04DX003 (ip), vehicle: saline with Tween-80 99 % of control | dose: 50.0 mg/kg/injection, schedule: Q01DX009 (ip), vehicle: saline with Tween-80 94 % of control | dose: 50.0 mg/kg/injection, schedule: Q04DX003 (ip), vehicle: saline with Tween-80 97 % of control | [4] 90 % of control | [1] 91 % of control

O=C(CN1C2CCC1CC(O)C2)NCC1C(c2ccccc2)C1c1ccccc1 (stereo not drawn)
inactive: dose: 25.0 mg/kg/injection, schedule: Q04DX002 (ip), vehicle: Klucel (hydroxypropylcellulose) (HPC) 111 % of control | dose: 50.0 mg/kg/injection, schedule: Q04DX002 (ip), vehicle: Klucel (hydroxypropylcellulose) (HPC) 95 % of control | dose: 100.0 mg/kg/injection, schedule: Q04DX002 (ip), vehicle: Klucel (hydroxypropylcellulose) (HPC) 109 % of control

C(/CCc1ccccc1)=N\Nc1nnc(N/N=C/CCc2ccccc2)c2ccccc12
inactive: [5] 102 % of control | [6] 105 % of control | [7] 102 % of control

CCC(C)(C1CCC(=O)CC1)C1CCC(=O)CC1
inactive: [8] 94 % of control | [9] 100 % of control | [10] 93 % of control

Oc1ccc2ccccc2c1/C=C/c1ccncc1
inactive: dose: 6.25 mg/kg/injection, schedule: Q01DX009 (ip), vehicle: Klucel (hydroxypropylcellulose) (HPC) 96 % of control | dose: 12.5 mg/kg/injection, schedule: Q01DX009 (ip), vehicle: Klucel (hydroxypropylcellulose) (HPC) 97 % of control | dose: 25.0 mg/kg/injection, schedule: Q01DX001 (ip), vehicle: Klucel (hydroxypropylcellulose) (HPC) 98 % of control | [11] 100 % of control | dose: 50.0 mg/kg/injection, schedule: Q01DX001 (ip), vehicle: Klucel (hydroxypropylcellulose) (HPC) 102 % of control | [12] 89 % of control | dose: 100.0 mg/kg/injection, schedule: Q01DX001 (ip), vehicle: Klucel (hydroxypropylcellulose) (HPC) 105 % of control and 91 % of control

COc1ccc(C(C)=O)cc1
inactive: dose: 100.0 mg/kg/injection, schedule: Q04DX002 (ip), vehicle: saline + alcohol 92 % of control | dose: 200.0 mg/kg/injection, schedule: Q04DX002 (ip), vehicle: saline + alcohol 96 % of control | dose: 400.0 mg/kg/injection, schedule: Q04DX002 (ip), vehicle: saline + alcohol 92 % of control

C=CC(O)CCCCCC (stereo not drawn)
inactive: [5] 97 % of control | [6] 101 % of control | [7] 95 % of control | dose: 400.0 mg/kg/injection, schedule: Q01DX001 (ip), vehicle: carboxymethylcellulose (CMC) 103 % of control

Clc1ccc(C=Nc2ccc(Cl)cc2)cc1
inactive: [1] 108 % of control | [2] 90 % of control | [3] 106 % of control

CN1COc2c(n(C)c(=O)[nH]c2=O)C1
inactive: dose: 50.0 mg/kg/injection, schedule: Q01DX001 (ip), vehicle: saline 97 % of control | [8] 103 % of control | [9] 89 % of control | [10] 101 % of control

CCCCCCCCCCCC[N+](C)(C)Cc1ccccc1 (tested in a mixture with another compound)
inactive: dose: 2.0 mg/kg/injection, schedule: Q01DX015 (ip), vehicle: saline 105 % of control | dose: 4.0 mg/kg/injection, schedule: Q01DX015 (ip), vehicle: saline 94 % of control | dose: 8.0 mg/kg/injection, schedule: Q01DX015 (ip), vehicle: saline 103 % of control

CCNCC(=O)N(N=O)C(=O)OCC
inactive: dose: 75.0 mg/kg/injection, schedule: Q01DX001 (ip), vehicle: steriod suspending solution 110 % of control | dose: 150.0 mg/kg/injection, schedule: Q01DX001 (ip), vehicle: steriod suspending solution 102 % of control

CCCC(=O)NC(=S)Nc1ccccc1
inactive: dose: 75.0 mg/kg/injection, schedule: Q01DX001 (ip), vehicle: carboxymethylcellulose (CMC) 98 % of control

CCO/C=C1\SC(=S)N(c2ccc(OCC)cc2)C1=O
inactive: [13] 98 % of control | [14] 98 % of control | [15] 95 % of control | [16] 98 % of control | [17] 98 % of control | [18] 97 % of control

NC(N)=NCCCC(NC(=O)OCc1ccccc1)C(=O)O (stereo not drawn)
inactive: [13] 106 % of control and 94 % of control | [14] 94 % of control and 97 % of control | [15] 109 % of control and 91 % of control | [16] 86 % of control and 99 % of control | [17] 97 % of control and 87 % of control | [18] 92 % of control

O=c1nccc(Nc2ccccc2)[nH]1
inactive: [11] 98 % of control | [12] 93 % of control | [13] 98 % of control

Nc1ncnc2nc(Cc3ccccc3)[nH]c12
inactive: dose: 100.0 mg/kg/injection, schedule: Q01DX001 (ip), vehicle: gum acacia 95 % of control | dose: 200.0 mg/kg/injection, schedule: Q01DX001 (ip), vehicle: gum acacia 109 % of control

CN(C)C(C#N)C(=O)c1ccc(Cl)cc1 (stereo not drawn)
inactive: [8] 91 % of control | [9] 95 % of control

C=CC(=O)Oc1ccc([N+](=O)[O-])cc1
inactive: dose: 12.0 mg/kg/injection, schedule: Q01DX009 (ip), vehicle: saline 100 % of control | dose: 25.0 mg/kg/injection, schedule: Q01DX009 (ip), vehicle: saline 117 % of control | dose: 50.0 mg/kg/injection, schedule: Q01DX009 (ip), vehicle: saline 114 % of control | dose: 200.0 mg/kg/injection, schedule: Q04DX003 (ip), vehicle: saline 100 % of control | dose: 400.0 mg/kg/injection, schedule: Q04DX003 (ip), vehicle: saline 108 % of control

CC(=O)c1ccc(F)cc1
inactive: [12] 98 % of control | [13] 98 % of control | [14] 86 % of control | [15] 97 % of control | [16] 98 % of control

O=C(Nc1ccc(S(=O)(=O)F)cc1)c1ccc(COc2ccc([N+](=O)[O-])cc2Cl)cc1
inactive: [4] 92 % of control | dose: 200.0 mg/kg/injection, schedule: Q01DX009 (ip), vehicle: saline with Tween-80 94 % of control | dose: 400.0 mg/kg/injection, schedule: Q01DX009 (ip), vehicle: saline with Tween-80 94 % of control

CC1(C)CC(=O)C2=C(C1)Nc1ccccc1CC2c1c[nH]c2ccccc12 (stereo not drawn)
inactive: dose: 100.0 mg/kg/injection, schedule: Q01DX001 (ip), vehicle: other 94 % of control | dose: 200.0 mg/kg/injection, schedule: Q01DX001 (ip), vehicle: other 103 % of control | dose: 400.0 mg/kg/injection, schedule: Q01DX001 (ip), vehicle: other 103 % of control
